Results on 65 sequences are retold here after the supplement of paper PMC11208160.
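Further: IS621 bridge recombinase in Escherichia coli cells against a fixed T5 target plasmid.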

This series in a line: recombinant UMI read abundance after kanamycin selection (control-corrected) (log10(CPM+1)); higher = more efficient recombination; extreme values may be limits of the assay; sequences stand for … in AGTGCAGAGAAAATCGGCCAGTTTTCTCTGCCTGCAGTCCGCATGCCGTGGGACCCCTTGGGTTCTAACCTGTTGCCTAGATTTATGCAGCGGACTGCCTTTCTCCCAAAGTGATAAACCGG…AGGTTGGTTTCACT; site = the 11-nt donor. The procedure: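 Pooled E. coli donor-specificity screen for the IS621 bridge recombinase. Each library member carries a reprogrammed 11-nt donor and a full-length LE bridge RNA expressed in cis from the natural promoter, with a paired donor-binding loop (8-nt LDG + 4-nt RDG) and a target-binding loop fixed to T5. It is co-electroporated with a T5 target plasmid; recombinase is induced with 0.07 mM IPTG and recombinants are selected on kanamycin. UMIs are counted as CPM, averaged over two biological replicates and corrected by the unselected control. Molecule = full bridge RNA written as DNA, built from the T5 scaffold: LDG = donor specificity nt 1-8, RDG = reverse complement of nt 8-11.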
For “ACAGGATCATGGACCGGTTTTCCCGGTAATCCGTATTTGCA (site ACAGGATCTTG)”, the “recombinant UMI read abundance (log10)” value was found to be 1.77.

On to “ACAGGATCATGGACCGGTTTTCCCGGTAATCCGTATTTGCA (site ACAGTATCTTG)”, for which the “recombinant UMI read abundance (log10)” value was determined as 2.38.

As for “ACAGTAACATGGACCGGTTTTCCCGGTAATCCGTATTTGCT (site ACAGTAACTAG)”, the “recombinant UMI read abundance (log10)” value amounted to 2.7. To “ACAGTAACATGGACCGGTTTTCCCGGTAATCCGTATTTGCT (site ACAGTATCTTG)” belongs 0.994. As for “ACAGTACCATGGACCGGTTTTCCCGGTAATCCGTATTTGCA (site ACAGTAACTTG)”, the “recombinant UMI read abundance (log10)” value was 0.

As to “ACAGTACCATGGACCGGTTTTCCCGGTAATCCGTATTTGCA (site ACAGTACCTTG)”, the “recombinant UMI read abundance (log10)” value was 0.00459.

On to “ACAGTACCATGGACCGGTTTTCCCGGTAATCCGTATTTGCA (site ACAGTAGCTTG)”, for which the “recombinant UMI read abundance (log10)” value was determined as 0.138. For “ACAGTACCATGGACCGGTTTTCCCGGTAATCCGTATTTGCA (site ACAGTATCTTG)” the value was 1.71.

With “ACAGTAGCATGGACCGGTTTTCCCGGTAATCCGTATTTGCG (site ACAGTAGCTCG)”, the “recombinant UMI read abundance (log10)” value worked out at 2.42. Take “ACAGTAGCATGGACCGGTTTTCCCGGTAATCCGTATTTGCG (site ACAGTATCTTG)”: the “recombinant UMI read abundance (log10)” value came out at 0.736. For “ACAGTATCATGGACCGGTTTTCCCGGTAATCCGTATTTGAA (site ACAGTATCTTA)” the value was 2.34; for “ACAGTATCATGGACCGGTTTTCCCGGTAATCCGTATTTGAA (site ACAGTATCTTC)”, 1.73; for “ACAGTATCATGGACCGGTTTTCCCGGTAATCCGTATTTGAA (site ACAGTATCTTG)”, 0.829.

Consider “ACAGTATCATGGACCGGTTTTCCCGGTAATCCGTATTTGAA (site ACAGTATCTTT)”, for which the “recombinant UMI read abundance (log10)” value came to 3.04. Regarding “ACAGTATCATGGACCGGTTTTCCCGGTAATCCGTATTTGAC (site ACAGTATCTGT)”, the “recombinant UMI read abundance (log10)” value turned out to be 3.52.

Take “ACAGTATCATGGACCGGTTTTCCCGGTAATCCGTATTTGAC (site ACAGTATCTTG)”: the “recombinant UMI read abundance (log10)” value is 1.15. Turning to “ACAGTATCATGGACCGGTTTTCCCGGTAATCCGTATTTGAC (site CTAGTATCTGT)”, the “recombinant UMI read abundance (log10)” value was 1.64. For “ACAGTATCATGGACCGGTTTTCCCGGTAATCCGTATTTGCC (site ACAGTATCTAG)”, the “recombinant UMI read abundance (log10)” value was determined as 1.42. For “ACAGTATCATGGACCGGTTTTCCCGGTAATCCGTATTTGCC (site ACAGTATCTCG)” the value was 1.77; for “ACAGTATCATGGACCGGTTTTCCCGGTAATCCGTATTTGCC (site ACAGTATCTGG)”, 2.92; for “ACAGTATCATGGACCGGTTTTCCCGGTAATCCGTATTTGCC (site ACAGTATCTTG)”, 1.9. For “ACAGTATCATGGACCGGTTTTCCCGGTAATCCGTATTTGTA (site ACAGTATCTTA)” the value was 3.08; for “ACAGTATCATGGACCGGTTTTCCCGGTAATCCGTATTTGTA (site ACAGTATCTTC)”, 2.02; for “ACAGTATCATGGACCGGTTTTCCCGGTAATCCGTATTTGTA (site ACAGTATCTTG)”, 2.51. To “ACAGTATCATGGACCGGTTTTCCCGGTAATCCGTATTTGTA (site ACAGTATCTTT)” belongs 2.44; to “ACAGTGTCATGGACCGGTTTTCCCGGTAATCCGTATTTGAA (site ACAGTATCTTG)”, 1.04.

Take “ACAGTGTCATGGACCGGTTTTCCCGGTAATCCGTATTTGAA (site ACAGTGTCTTT)”: the “recombinant UMI read abundance (log10)” value was found to be 3.19. For “ACAGTTCCATGGACCGGTTTTCCCGGTAATCCGTATTTGCC (site ACAGTTCCTGG)” the value was 0; for “ACATCAACATGGACCGGTTTTCCCGGTAATCCGTATTTGTC (site ACATCAACTGA)”, 1.34; for “ACATCAACATGGACCGGTTTTCCCGGTAATCCGTATTTGTG (site ACATCAACTCA)”, 0.878.

On to “ACATCAACATGGACCGGTTTTCCCGGTAATCCGTATTTGTG (site ACATCCACTCA)”, for which the “recombinant UMI read abundance (log10)” value stood at 0.0219. As to “ACATCAACATGGACCGGTTTTCCCGGTAATCCGTATTTGTG (site ACATCGACTCA)”, the “recombinant UMI read abundance (log10)” value stood at 0.0265. For “ACATCAACATGGACCGGTTTTCCCGGTAATCCGTATTTGTG (site ACATCTACTCA)” the value was 0.206; for “ACATCCTCATGGACCGGTTTTCCCGGTAATCCGTATTTGTC (site ACATCCTCTGA)”, 2.8. For “ACATGTACATGGACCGGTTTTCCCGGTAATCCGTATTTGAC (site ACATGTACTGT)” the value was 1.76; for “ACATTATCATGGACCGGTTTTCCCGGTAATCCGTATTTGCA (site ACAATATCTTG)”, 1.92; for “ACATTATCATGGACCGGTTTTCCCGGTAATCCGTATTTGCA (site ACACTATCTTG)”, 2.24. Consider “ACATTATCATGGACCGGTTTTCCCGGTAATCCGTATTTGCA (site ACAGTATCTTG)”, for which the “recombinant UMI read abundance (log10)” value is 1.69. For “ACATTATCATGGACCGGTTTTCCCGGTAATCCGTATTTGCA (site ACATTATCTTG)” the value was 2.01. To “ACCAACCCATGGACCGGTTTTCCCGGTAATCCGTATTTGCG (site ACCAACCCTCG)” belongs 0. Take “ACCAAGACATGGACCGGTTTTCCCGGTAATCCGTATTTGGG (site ACCAAGACTCC)”: the “recombinant UMI read abundance (log10)” value was determined as 0.0181. To “ACCAAGACATGGACCGGTTTTCCCGGTAATCCGTATTTGGG (site ACCCAGACTCC)” belongs 0.0318; to “ACCAAGACATGGACCGGTTTTCCCGGTAATCCGTATTTGGG (site ACCGAGACTCC)”, 0.0218. On to “ACCAAGACATGGACCGGTTTTCCCGGTAATCCGTATTTGGG (site ACCTAGACTCC)”, for which the “recombinant UMI read abundance (log10)” value was 0.0189. With “ACCAGAACATGGACCGGTTTTCCCGGTAATCCGTATTTGAA (site ACCAGAACTTT)”, the “recombinant UMI read abundance (log10)” value is 1.72. To “ACCAGTCCATGGACCGGTTTTCCCGGTAATCCGTATTTGCG (site GATGCATCTTA)” belongs 0; to “ACCAGTGCATGGACCGGTTTTCCCGGTAATCCGTATTTGGT (site ACAAGTGCTAC)”, 0.0927. For “ACCAGTGCATGGACCGGTTTTCCCGGTAATCCGTATTTGGT (site ACCAGTGCTAC)” the value was 0.472; for “ACCAGTGCATGGACCGGTTTTCCCGGTAATCCGTATTTGGT (site ACGAGTGCTAC)”, 0.0125; for “ACCAGTGCATGGACCGGTTTTCCCGGTAATCCGTATTTGGT (site ACTAGTGCTAC)”, 0.19. To “ACCCAAGCATGGACCGGTTTTCCCGGTAATCCGTATTTGAG (site AACCAAGCTCT)” belongs 0.712. “ACCCAAGCATGGACCGGTTTTCCCGGTAATCCGTATTTGAG (site ACCCAAGCTCT)”: the “recombinant UMI read abundance (log10)” value amounted to 1.97.

Take “ACCCAAGCATGGACCGGTTTTCCCGGTAATCCGTATTTGAG (site AGCCAAGCTCT)”: the “recombinant UMI read abundance (log10)” value turned out to be 0.021. For “ACCCAAGCATGGACCGGTTTTCCCGGTAATCCGTATTTGAG (site ATCCAAGCTCT)” the value was 0.467. Turning to “ACCCACCCATGGACCGGTTTTCCCGGTAATCCGTATTTGAG (site ACCCACCCTCT)”, the “recombinant UMI read abundance (log10)” value was found to be 0.00795. For “ACCCTAGCATGGACCGGTTTTCCCGGTAATCCGTATTTGAT (site ACCCTAGCTAT)”, the “recombinant UMI read abundance (log10)” value was 0.558. Regarding “ACCCTCTCATGGACCGGTTTTCCCGGTAATCCGTATTTGGG (site ACCCTCTCTCC)”, the “recombinant UMI read abundance (log10)” value is 0.0124. To “ACCGAGGCATGGACCGGTTTTCCCGGTAATCCGTATTTGGG (site ACCGAGGCTCC)” belongs 0.157.

In the case of “ACCGCGGCATGGACCGGTTTTCCCGGTAATCCGTATTTGAT (site ACCGCGGCTAT)”, the “recombinant UMI read abundance (log10)” value came to 1.78. As to “ACCGGATCATGGACCGGTTTTCCCGGTAATCCGTATTTGAG (site ACCGGATCTCT)”, the “recombinant UMI read abundance (log10)” value was found to be 1.22. For “ACCGGATCATGGACCGGTTTTCCCGGTAATCCGTATTTGCG (site ACCGGATCTCG)” the value was 2.56; for “ACCGTAACATGGACCGGTTTTCCCGGTAATCCGTATTTGCA (site ACAGTATCTTG)”, 1.49; for “ACCGTAACATGGACCGGTTTTCCCGGTAATCCGTATTTGCA (site ACCGTAACTTG)”, 2.34. For “ACCGTATCATGGACCGGTTTTCCCGGTAATCCGTATTTGGA (site ACAGTATCTTG)” the value was 0.692. For “ACCGTATCATGGACCGGTTTTCCCGGTAATCCGTATTTGGA (site ACCGTATCTTC)”, the “recombinant UMI read abundance (log10)” value was determined as 1.83.
